Reference: paper PMC6150365, “Simultaneous Determination of Seven Components in Rat Plasma by the UPLC-MS/MS Method and Application of Pharmacokinetic Studies to SimiaoYong’an Decoction” (Molecules : A Journal of Synthetic Chemistry and Natural …, 2017)

Assay: Pharmacokinetic study in rats after oral administration of SYD extract and its single and combined TCM extracts (UPLC-MS/MS of plasma)
Details: male, Sprague-Dawley, rat, plasma, po, n = 6; for AUC(0-t) / AUC(0-inf) / MRT last / MRT inf / Tmax / Cmax: rat plasma; for MRT last: MRT(0–t); for MRT inf: MRT(0–∞)
[1] = 2.49 g/kg, oral SN extract 2.49 g/kg
[2] = 3.38 g/kg extract (6.67 g/kg as herbs), oral SN + GU extract
[3] = 3.38 g·kg^−1 (extract), oral SN + GU extract
[4] = 3.98 g/kg extract (8.33 g/kg as herbs), oral SN + AS extract
[5] = 4.5 g·kg^−1 (extract), oral LJ + SN extract
[6] = 4.5 g·kg^−1 extract, oral LJ + SN extract
[7] = 4.73 g/kg, oral LJ + SN + GU extract 4.73 g/kg
[8] = 5.43 g/kg, oral LJ + SN + AS extract 5.43 g/kg
[9] = 8.25 g/kg, oral SYD extract 8.25 g/kg

Method: Pieces of LJ, SN, AS and GU were weighed according to the proportion of 3:3:2:1 with appropriate amounts. The mixed pieces were crushed and decocted two times (60 min each time) with water (1:10 w/v) after being soaked for 60 min. The decoctions were then combined and condensed to the concentration of 0.5 g/mL, after which 95% ethanol was slowly added to the concentrate until a final ethanol concentration of 70% was reached. The SYD solution was set at room temperature overnight and then was filtered. The solvent was recovered, and the residue was dried under reduced pressure. A certain amount of the water extract of SYD was weighed and then dissolved with purified water for intragastric (oral) administration solution. The single herbs and different combination groups such as LJ, SN, AS, GU, LJ + SN, LJ + AS, LJ + GU, SN + AS, SN + GU, AS + GU, LJ + SN + AS, LJ + SN + GU, LJ + AS + GU and SN + AS + GU were prepared according to the procedure of SYD.
Male Sprague-Dawley (SD) rats (body weight 250 ± 10 g) were supplied by the SPF (Beijing) Biotechnology Co., Ltd. (Certificate No.: SCXK 2016-0002, Beijing, China). The animals were maintained in controlled conditions (temperature 20–25 °C, relative humidity 55–60% and 12-h light/12-h dark cycle) with free access to standard laboratory food and water for seven days of acclimation and then fasted for 12 h before each experiment but allowed to drink freely during this time.
Ninety male SD rats were randomly separated into 15 groups and administered a dosage of extract via gastric gavage once per day; detailed information about the oral daily dose of SYD extract and the corresponding single and combined TCMs (LJ, SN, AS, GU, LJ + SN, LJ + AS, LJ + GU, SN + AS, SN + GU, AS + GU, LJ + SN + AS, LJ + SN + GU, LJ + AS + GU, SN + AS + GU and SYD) is listed in Table 4.
Each plasma sample (200 μL) with 50 μL IS solution added was spiked into 100 μL 1% formic acid distilled water solution and then vortexed for 1 min. Protein was precipitated by adding 600 μL of methanol to the mixture. After being vortexed and sonicated, the samples were centrifuged at 25,000 r/min, 4 °C for 10 min. The supernatant of each sample was transferred to a new 2-mL centrifuge tube and evaporated to dryness by N2 at 40 °C. Finally, the residue was dissolved in 100 μL methanol–water (1:1, v/v), followed by centrifugation at 30,000 r/min, 4 °C for 10 min, and 10-μL supernatant aliquots were injected into the UPLC-MS/MS system for analysis.
The SYD was decomposed into 15 groups of compatibility combinations (LJ, SN, AS, GU, LJ + SN, LJ + AS, LJ + GU, SN + AS, SN + GU, AS + GU, LJ + SN + AS, LJ + SN + GU, LJ + AS + GU, SN + AS + GU and SYD). The 15 combinations were weighed according to the proportion of 3:3:2:1 with appropriate amounts and prepared by the method described in “Section 3.2”. Six male SD rats (body weight 250 ± 10 g) of each compatibility group were used in the pharmacokinetic study. After 12-h fast, rats of the different groups were orally administered the respective extract dissolved in saline (Table 4). Venous blood (0.45 mL) was obtained from the orbit vein and collected in heparin-pretreated polypropylene centrifuge tubes at 0.083 h, 0.17 h, 0.25 h, 0.50 h, 0.75 h, 1.0 h, 1.5 h, 2.0 h, 3.0 h, 4.0 h, 6.0 h, 8.0, 12 h and 24 h post-dose. The plasma was separated by centrifugation at 8000 r/min for 10 min and then stored at −20 °C until analysis. The amount of each analyte in the plasma was estimated by UPLC-MS/MS analysis as described in Section 3.5.
Non-compartmental methods using Phoenix WinNonlin 7.0 software provided by the Beijing University of Chinese Medicine were used to analyze plasma concentration versus time profiles and to estimate the following pharmacokinetic parameters: terminal elimination half-lives (t1/2), area under the plasma concentration versus time curve from zero to last sampling time (AUC), and the mean residence time (MRT).

Question: With `COc1ccc(CCO[C@@H]2O[C@H](CO[C@@H]3OC[C@H](O)[C@H](O)[C@H]3O)[C@@H](OC(=O)/C=C/c3ccc(O)c(OC)c3)[C@H](O[C@@H]3O[C@@H](C)[C@H](O)[C@@H](O)[C@H]3O)[C@H]2O)cc1O` [Angoroside C, angoroside C] as the molecule, how does the AUC(0-t) [1] read?
Answer: 90 ± 30 ng·h/mL

Question: And the AUC(0-inf) [1]?
Answer: 110 ± 20 ng·h/mL

Question: What about the MRT last [1] of the same molecule?
Answer: 3.03 ± 0.37 h

Question: And the MRT inf [1]?
Answer: 18.1 ± 3.41 h

Question: And the Tmax (2.49 g/kg, Tmax, oral SN extract 2.49 g/kg)?
Answer: 1.25 ± 0.59 h

Question: What about the half-life (2.49 g/kg, t1/2, rat plasma, oral SN extract 2.49 g/kg) of the same molecule?
Answer: 10.7 ± 6.13 h

Question: And the MRT last [2]?
Answer: 2.86 ± 1.21 h

Question: What about the MRT inf [2] of the same molecule?
Answer: 4.99 ± 3.19 h

Question: And the Tmax (3.38 g/kg extract (6.67 g/kg as herbs), Tmax, oral SN + GU extract)?
Answer: 1.11 ± 0.52 h

Question: And the half-life (3.38 g/kg extract (6.67 g/kg as herbs), t1/2, rat plasma, oral SN + GU extract)?
Answer: 9.91 ± 4.62 h

Question: And the AUC(0-t) [3]?
Answer: 410 ± 60 ng·h/mL

Question: And the AUC(0-inf) [3]?
Answer: 420 ± 80 ng·h/mL

Question: And the Cmax (3.38 g·kg^−1 extract, oral SN + GU extract)?
Answer: 330 ± 50 ng/mL

Question: And the AUC(0-t) [4]?
Answer: 450 ± 30 ng·h/mL

Question: And the AUC(0-inf) [4]?
Answer: 460 ± 30 ng·h/mL

Question: And the MRT last [4]?
Answer: 2.85 ± 1.25 h

Question: What about the MRT inf [4] of the same molecule?
Answer: 5.01 ± 3.31 h

Question: And the Tmax (3.98 g·kg^−1, Tmax, oral SN + AS extract)?
Answer: 1.03 ± 0.49 h

Question: And the half-life (3.98 g·kg^−1, t1/2, rat plasma, oral SN + AS extract)?
Answer: 10 ± 4.72 h

Question: What about the Cmax (3.98 g·kg^−1 extract, oral SN + AS extract) of the same molecule?
Answer: 400 ± 20 ng/mL

Question: And the MRT last [5]?
Answer: 2.88 ± 1.23 h

Question: And the MRT inf [5]?
Answer: 5.22 ± 3.5 h

Question: What about the Tmax (4.5 g·kg^−1 (extract), Tmax, oral LJ + SN extract) of the same molecule?
Answer: 1.07 ± 0.54 h

Question: And the half-life (4.5 g·kg^−1 (extract), t1/2, rat plasma, oral LJ + SN extract)?
Answer: 10.3 ± 5.06 h

Question: And the AUC(0-t) [6]?
Answer: 390 ± 460 ng·h/mL

Question: And the AUC(0-inf) [6]?
Answer: 400 ± 460 ng·h/mL

Question: What about the Cmax [6] of the same molecule?
Answer: 270 ± 330 ng/mL

Question: What about the AUC(0-t) [7] of the same molecule?
Answer: 220 ± 90 ng·h/mL

Question: What about the AUC(0-inf) [7] of the same molecule?
Answer: 230 ± 190 ng·h/mL

Question: And the Cmax [7]?
Answer: 150 ± 150 ng/mL

Question: What about the MRT last [7] of the same molecule?
Answer: 2.95 ± 0.82 h

Question: What about the MRT inf [7] of the same molecule?
Answer: 7.88 ± 6.88 h

Question: And the Tmax (4.73 g/kg, Tmax, oral LJ + SN + GU extract 4.73 g/kg)?
Answer: 1.29 ± 0.46 h

Question: What about the half-life (4.73 g/kg, t1/2, rat plasma, oral LJ + SN + GU extract 4.73 g/kg) of the same molecule?
Answer: 11.7 ± 6.52 h

Question: What about the AUC(0-t) [8] of the same molecule?
Answer: 180 ± 130 ng·h/mL

Question: What about the AUC(0-inf) [8] of the same molecule?
Answer: 200 ± 130 ng·h/mL

Question: And the Cmax [8]?
Answer: 140 ± 130 ng/mL

Question: And the MRT last [8]?
Answer: 3.05 ± 0.7 h

Question: And the MRT inf [8]?
Answer: 8.16 ± 6.76 h

Question: And the Tmax (5.43 g/kg, Tmax, oral LJ + SN + AS extract 5.43 g/kg)?
Answer: 1.38 ± 0.44 h

Question: What about the half-life (5.43 g/kg, t1/2, rat plasma, oral LJ + SN + AS extract 5.43 g/kg) of the same molecule?
Answer: 11.8 ± 6.58 h

Question: And the AUC(0-t) [9]?
Answer: 300 ± 290 ng·h/mL

Question: What about the AUC(0-inf) [9] of the same molecule?
Answer: 310 ± 290 ng·h/mL

Question: What about the Cmax [9] of the same molecule?
Answer: 180 ± 200 ng/mL

Question: What about the MRT last [9] of the same molecule?
Answer: 3.01 ± 0.69 h

Question: What about the MRT inf [9] of the same molecule?
Answer: 7.01 ± 5.95 h

Question: What about the Tmax (8.25 g/kg, Tmax, oral SYD extract 8.25 g/kg) of the same molecule?
Answer: 1.38 ± 0.44 h

Question: What about the half-life (8.25 g/kg, t1/2, rat plasma, oral SYD extract 8.25 g/kg) of the same molecule?
Answer: 11.4 ± 6.34 h

Question: What about the Tmax ([…], Tmax, oral SN + AS + GU extract […]) of the same molecule?
Answer: 1.38 ± 0.44 h

Question: And the half-life ([…], t1/2, rat plasma, oral SN + AS + GU extract […])?
Answer: 11.6 ± 6.42 h
